Like-named read-outs stand apart in the source and are kept apart here.
Tests used:
[1] = target: T1, EGFR wild type (Homo sapiens, UniProt P00533); experiment: Inhibition of EGFR wild type biochemical enzymatic activity (HTRF); settings: 1 mM ATP
T1 construct: purchased Carna Bio
Outline: (§1)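 Read-out is the HTRF 665/615 nm ratio (excitation 320 nm), taken as proportional to kinase activity after a 1 h room-temperature reaction with 1 mM ATP and 1 μM biotinylated TK substrate. IC50 values derive from four-parameter logistic fitting.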

[2] = target: T2, EGFR Exon19Del (Homo sapiens, UniProt P00533, DEL746-750); experiment: Inhibition of EGFR Exon19Del biochemical enzymatic activity (HTRF); settings: read-out: IC50 @Del19
T2 construct: purchased Carna Bio
Outline: as §1

[3] = target: T3, EGFR (C797S L858R) (Homo sapiens, UniProt P00533, C797S/L858R); experiment: Inhibition of EGFR (C797S L858R) biochemical enzymatic activity (HTRF); settings: 1 mM ATP
T3 construct: purchased signalchem
Outline: as §1

[4] = target: T4, EGFR L858R (Homo sapiens, UniProt P00533, L858R); experiment: Inhibition of EGFR L858R biochemical enzymatic activity (HTRF); settings: 1 mM ATP
T4 construct: purchased Carna Bio
T4 sequence (P00533 25-1210 L858R): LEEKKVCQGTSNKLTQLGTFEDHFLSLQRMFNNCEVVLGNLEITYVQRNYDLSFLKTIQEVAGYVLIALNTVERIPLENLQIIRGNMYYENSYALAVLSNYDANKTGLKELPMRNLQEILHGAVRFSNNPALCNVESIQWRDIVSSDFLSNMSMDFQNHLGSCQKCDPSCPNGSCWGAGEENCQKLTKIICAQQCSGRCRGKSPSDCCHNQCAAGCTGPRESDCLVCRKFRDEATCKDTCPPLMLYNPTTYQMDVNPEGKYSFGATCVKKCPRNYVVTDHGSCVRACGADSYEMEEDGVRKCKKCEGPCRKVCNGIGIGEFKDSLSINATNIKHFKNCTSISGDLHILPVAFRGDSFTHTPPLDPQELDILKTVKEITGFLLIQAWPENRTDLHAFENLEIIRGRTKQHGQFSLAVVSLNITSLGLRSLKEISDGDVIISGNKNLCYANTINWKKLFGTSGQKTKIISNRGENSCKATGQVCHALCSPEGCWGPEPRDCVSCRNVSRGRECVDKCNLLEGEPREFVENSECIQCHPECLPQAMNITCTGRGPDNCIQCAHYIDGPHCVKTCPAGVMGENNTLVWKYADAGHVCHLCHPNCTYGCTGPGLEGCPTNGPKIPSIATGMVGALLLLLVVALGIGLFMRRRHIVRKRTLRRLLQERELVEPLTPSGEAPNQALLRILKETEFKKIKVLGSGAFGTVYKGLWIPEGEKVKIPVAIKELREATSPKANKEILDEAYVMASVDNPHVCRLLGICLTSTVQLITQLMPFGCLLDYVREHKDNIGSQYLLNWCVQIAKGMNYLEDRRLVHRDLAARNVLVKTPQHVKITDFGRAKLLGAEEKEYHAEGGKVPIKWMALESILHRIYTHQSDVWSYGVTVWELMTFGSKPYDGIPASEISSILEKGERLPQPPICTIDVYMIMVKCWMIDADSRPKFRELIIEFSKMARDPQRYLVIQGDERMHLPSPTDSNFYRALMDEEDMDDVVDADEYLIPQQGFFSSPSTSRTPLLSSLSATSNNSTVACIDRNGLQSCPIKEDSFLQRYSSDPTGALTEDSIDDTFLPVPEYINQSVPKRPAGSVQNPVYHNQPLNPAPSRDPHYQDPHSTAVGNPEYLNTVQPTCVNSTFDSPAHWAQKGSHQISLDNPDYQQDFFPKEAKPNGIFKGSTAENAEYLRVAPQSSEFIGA
Outline: as §1

[5] = target: T5, EGFR (d746-750 C797S) (Homo sapiens, UniProt P00533, C797S/DEL746-750); experiment: Inhibition of EGFR (d746-750 C797S) biochemical enzymatic activity (HTRF); settings: 1 mM ATP
T5 construct: purchased signalchem
T5 sequence (P00533 with tags, fused parts or gaps DEL746-750/C797S limits assumed): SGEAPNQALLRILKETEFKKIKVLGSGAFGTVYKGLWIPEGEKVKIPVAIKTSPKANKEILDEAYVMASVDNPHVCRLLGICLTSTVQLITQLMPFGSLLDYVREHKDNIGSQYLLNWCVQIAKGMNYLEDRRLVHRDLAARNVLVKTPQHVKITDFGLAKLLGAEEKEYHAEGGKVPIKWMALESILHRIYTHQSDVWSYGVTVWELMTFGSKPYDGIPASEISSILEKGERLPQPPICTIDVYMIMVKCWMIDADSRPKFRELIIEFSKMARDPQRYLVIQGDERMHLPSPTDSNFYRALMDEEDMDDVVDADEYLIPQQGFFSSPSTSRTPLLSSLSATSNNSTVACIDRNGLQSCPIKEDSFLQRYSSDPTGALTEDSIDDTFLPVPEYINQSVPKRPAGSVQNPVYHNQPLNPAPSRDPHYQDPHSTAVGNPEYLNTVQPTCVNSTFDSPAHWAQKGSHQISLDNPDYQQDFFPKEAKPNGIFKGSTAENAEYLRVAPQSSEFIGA
Outline: as §1

[6] = test system: Ba/F3 cells expressing EGFR mutations; experiment: Cell proliferation assay, Ba/F3 cells expressing EGFR mutations (CellTiter-Glo, 72 hours); assay type: cell-based
Outline: (§2)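 Seed Ba/F3 at 5000 cells/well and PC-9 at 500 cells/well (10% FBS RPMI1640); incubate overnight; add compound dilution series; read a G0 plate; incubate; read G3; GI50 from best-fit curve.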

[7] = target: T6, EGFR L858R/T790M (Homo sapiens, UniProt P00533, L858R/T790M); experiment: Inhibition of EGFR L858R/T790M biochemical enzymatic activity (HTRF); settings: 1 mM ATP
T6 construct: purchased Carna Bio
Outline: as §1

[8] = target: T7, EGFR Exon19Del/T790M (Homo sapiens, UniProt P00533, DEL746-750/T790M); experiment: Inhibition of EGFR Exon19Del/T790M biochemical enzymatic activity (HTRF); settings: 1 mM ATP
T7 construct: purchased Carna Bio
Outline: as §1

[9] = test system: PC-9; experiment: Cell proliferation assay, PC-9 cells (CellTiter-Glo, 72 hours); assay type: cell-based; settings: PC9 cells, read-out: GI50 PC9
Outline: as §2

[10] = target: T8, EGFR[T790M/C797S/L858R] (Homo sapiens, UniProt P00533, C797S/L858R/T790M); experiment: Inhibition of EGFR[T790M/C797S/L858R] biochemical enzymatic activity (HTRF); settings: 1 mM ATP
T8 construct: purchased Carna Bio
T8 sequence (P00533 25-1210 T790M/C797S/L858R): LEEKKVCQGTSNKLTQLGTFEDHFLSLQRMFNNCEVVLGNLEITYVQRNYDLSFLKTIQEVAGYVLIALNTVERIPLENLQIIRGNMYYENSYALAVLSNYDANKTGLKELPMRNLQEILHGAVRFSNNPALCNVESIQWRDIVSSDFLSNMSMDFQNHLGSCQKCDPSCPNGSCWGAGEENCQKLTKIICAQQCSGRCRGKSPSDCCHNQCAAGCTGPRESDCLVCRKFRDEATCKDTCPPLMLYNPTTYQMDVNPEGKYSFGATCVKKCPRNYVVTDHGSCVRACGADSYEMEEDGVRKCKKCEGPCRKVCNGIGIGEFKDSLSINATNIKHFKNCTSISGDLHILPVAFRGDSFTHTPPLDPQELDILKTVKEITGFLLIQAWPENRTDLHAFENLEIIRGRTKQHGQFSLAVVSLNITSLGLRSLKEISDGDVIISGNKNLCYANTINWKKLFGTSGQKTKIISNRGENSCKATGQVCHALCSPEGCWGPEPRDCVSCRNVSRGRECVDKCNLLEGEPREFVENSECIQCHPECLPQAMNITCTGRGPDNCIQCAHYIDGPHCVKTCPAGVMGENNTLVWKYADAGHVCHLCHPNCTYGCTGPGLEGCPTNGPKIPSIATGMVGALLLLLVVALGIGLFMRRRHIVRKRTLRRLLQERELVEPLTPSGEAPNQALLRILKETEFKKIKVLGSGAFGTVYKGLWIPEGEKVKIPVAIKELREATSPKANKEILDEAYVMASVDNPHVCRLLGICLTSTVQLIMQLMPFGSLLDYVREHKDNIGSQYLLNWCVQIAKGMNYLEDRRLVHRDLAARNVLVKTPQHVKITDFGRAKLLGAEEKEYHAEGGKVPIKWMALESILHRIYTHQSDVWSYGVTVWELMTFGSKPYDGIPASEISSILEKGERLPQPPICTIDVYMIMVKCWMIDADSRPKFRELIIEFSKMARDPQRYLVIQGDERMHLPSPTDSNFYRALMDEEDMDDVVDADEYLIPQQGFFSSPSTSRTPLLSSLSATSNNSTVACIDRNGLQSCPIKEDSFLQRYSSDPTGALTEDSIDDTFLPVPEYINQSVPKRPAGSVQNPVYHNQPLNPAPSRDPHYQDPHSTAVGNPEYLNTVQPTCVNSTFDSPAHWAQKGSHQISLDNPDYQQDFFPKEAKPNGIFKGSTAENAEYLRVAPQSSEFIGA
Outline: as §1

[11] = test system: A-431; experiment: Cell proliferation assay, A-431 cells (GI50, Table 6); assay type: cell-based
[12] = target: T9, EGFR[T790M/C797S/d746-750] (Homo sapiens, UniProt P00533, C797S/DEL746-750/T790M); experiment: Inhibition of EGFR[T790M/C797S/d746-750] biochemical enzymatic activity (HTRF)
T9 construct: purchased Carna Bio
T9 sequence (P00533 with tags, fused parts or gaps DEL746-750/T790M/C797S limits assumed): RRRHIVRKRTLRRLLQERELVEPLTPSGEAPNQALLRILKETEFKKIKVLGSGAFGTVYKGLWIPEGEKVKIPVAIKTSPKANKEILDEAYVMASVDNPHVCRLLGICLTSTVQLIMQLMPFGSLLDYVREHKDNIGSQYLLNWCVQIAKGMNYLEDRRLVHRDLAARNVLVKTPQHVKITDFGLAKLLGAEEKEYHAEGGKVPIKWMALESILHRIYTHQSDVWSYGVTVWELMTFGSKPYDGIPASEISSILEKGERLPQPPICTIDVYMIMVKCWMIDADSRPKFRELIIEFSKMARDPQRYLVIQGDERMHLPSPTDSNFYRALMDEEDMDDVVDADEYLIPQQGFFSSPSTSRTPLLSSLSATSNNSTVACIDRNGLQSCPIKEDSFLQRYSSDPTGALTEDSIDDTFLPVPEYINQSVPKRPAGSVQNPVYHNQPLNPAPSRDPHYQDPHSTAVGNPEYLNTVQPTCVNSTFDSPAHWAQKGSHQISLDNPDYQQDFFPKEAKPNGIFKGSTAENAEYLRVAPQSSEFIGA
Outline: as §1

[13] = EGFR WT, 1 h, room temperature, read-out: IC50 (nM) @WT
[14] = EGFR Del19, 1 mM ATP, 1 h, room temperature
[15] = EGFR L858-C797S, 1 h, room temperature, read-out: IC50 (nM) @L858-C797S
[16] = 1 h, room temperature, read-out: IC50 (nM) @L858R
[17] = EGFR Del19-C797S, 1 h, room temperature, read-out: IC50 (nM) @Del19-C797S
[18] = Mus musculus, BaF3, 72 h, BaF3 cells, EGFR DEL19 - C797S, read-out: GI50 DEL19 - C797S/BaF3
[19] = Mus musculus, BaF3, 72 h, BaF3 cells, EGFR DEL19 - T790-C797S, read-out: GI50 DEL19 - T790-C797S/BaF3
[20] = Mus musculus, BaF3, 72 h, BaF3 cells, EGFR L858R - C797S, read-out: GI50 L858R - C797S/BaF3
[21] = Mus musculus, BaF3, 72 h, BaF3 cells, EGFR L858R - T790-C797S, read-out: GI50 L858R - T790-C797S/BaF3
[22] = Mus musculus, BaF3, 72 h, BaF3 cells, EGFR L858R, read-out: GI50 L858R/BaF3
[23] = Mus musculus, BaF3, 72 h, EGFR DEL19 - T790M, read-out: GI50 DEL19 - T790M
[24] = EGFR L858R-T790M, 1 h, room temperature, read-out: IC50 (nM) @L858R-T790M
[25] = EGFR Del19-T790M, 1 h, room temperature, read-out: IC50 (nM) @Del19-T790M
[26] = EGFR T790M-C797S-L858R, 1 h, room temperature, read-out: IC50 (nM) @T790M- C797S - L858R
[27] = Homo sapiens, A-431, A-431 cells
[28] = EGFR T790M-C797S-Del19, 1 mM ATP, 1 h, room temperature, read-out: IC50 (nM) @T790M - C797S - Del19

T1 sequence (P00533 25-1210): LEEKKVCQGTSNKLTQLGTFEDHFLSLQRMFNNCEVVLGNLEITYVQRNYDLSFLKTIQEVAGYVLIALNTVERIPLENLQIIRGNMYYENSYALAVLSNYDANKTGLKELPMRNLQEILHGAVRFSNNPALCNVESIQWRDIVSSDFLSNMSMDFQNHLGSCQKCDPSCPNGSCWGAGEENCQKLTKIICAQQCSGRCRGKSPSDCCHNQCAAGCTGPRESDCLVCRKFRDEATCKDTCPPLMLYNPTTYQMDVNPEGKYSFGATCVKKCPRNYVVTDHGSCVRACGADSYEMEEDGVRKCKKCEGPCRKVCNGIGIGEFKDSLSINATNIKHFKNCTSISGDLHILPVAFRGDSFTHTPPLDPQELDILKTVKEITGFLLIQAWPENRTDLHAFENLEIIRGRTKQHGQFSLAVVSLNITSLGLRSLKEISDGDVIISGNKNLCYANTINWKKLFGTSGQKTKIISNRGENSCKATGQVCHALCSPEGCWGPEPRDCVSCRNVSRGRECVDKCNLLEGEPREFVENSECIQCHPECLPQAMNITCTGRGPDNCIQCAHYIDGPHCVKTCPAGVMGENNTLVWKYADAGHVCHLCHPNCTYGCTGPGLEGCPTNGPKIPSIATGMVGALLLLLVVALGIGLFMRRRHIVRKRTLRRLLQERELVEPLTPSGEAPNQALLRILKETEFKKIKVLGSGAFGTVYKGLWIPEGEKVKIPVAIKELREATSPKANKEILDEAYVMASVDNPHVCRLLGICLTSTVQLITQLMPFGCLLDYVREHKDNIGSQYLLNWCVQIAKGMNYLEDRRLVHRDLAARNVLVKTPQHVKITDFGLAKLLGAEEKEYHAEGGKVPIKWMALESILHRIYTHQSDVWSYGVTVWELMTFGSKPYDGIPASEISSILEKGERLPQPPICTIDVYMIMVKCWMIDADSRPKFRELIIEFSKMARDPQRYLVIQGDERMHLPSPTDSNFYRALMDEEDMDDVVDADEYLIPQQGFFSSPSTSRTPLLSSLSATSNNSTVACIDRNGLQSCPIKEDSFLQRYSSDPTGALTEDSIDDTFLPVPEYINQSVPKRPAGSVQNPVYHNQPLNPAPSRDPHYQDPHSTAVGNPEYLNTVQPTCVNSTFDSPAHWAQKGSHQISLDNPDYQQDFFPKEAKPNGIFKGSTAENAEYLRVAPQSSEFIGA

IC50 [1, 13] [nM] | IC50 [2, 14] [nM] | IC50 [3, 15] [nM] | IC50 [4, 16] [nM] | IC50 [5, 17] [nM] | GI50 [6, 18] [nM] | GI50 [6, 19] [nM] | GI50 [6, 20] [nM] | GI50 [6, 21] [nM] | GI50 [6, 22] [nM] | GI50 [6, 23] [nM] | IC50 [7, 24] [nM] | IC50 [8, 25] [nM] | GI50 ([9]; Homo sapiens, PC-9, 72 h) [nM] | IC50 [10, 26] [nM] | GI50 [11, 27] [nM] | IC50 [12, 28] [nM] | other results | SMILES
> 5000 | 592 | 3630 | > 5000 | 243 | 125 | 61 | 342 | 42 | 612 | 57 | 847 | 33 | 292 | 532 | 3530 | 16 | – | Cc1cc2cc(n1)-c1cnn(C)c1OCCN1CCCCC(C1)n1c(nc3ccccc31)NC2=O (centres unmarked) [Example B4, 15,21-Dimethyl-23-oxa-2,9,11,16,20,21,26-heptaazahexacyclo[24.4.1.1^{13,17}.0^{2,10}.0^{3,8}.0^{18,22}]dotriaconta-3,5,7,9,13(32),14,16,18(22),19-nonaen-12-one]
– | – | – | – | – | – | – | – | – | – | – | – | – | – | – | – | – | IC50 ([1]; EGFR wild type, 1 h at room temperature, read-out: IC50 @WT): 2970 nM; IC50 ([2]; EGFR Exon19Del, 1 mM ATP, 1 h at room temperature): 13 nM; IC50 ([3]; EGFR (C797S L858R), 1 h at room temperature, read-out: IC50 @L858-C797S): 44 nM; IC50 ([4]; 1 h at room temperature, read-out: IC50 @L858R): 142 nM; IC50 ([5]; EGFR (d746-750 C797S), 1 h at room temperature, read-out: IC50 @Del19-C797S): 4.5 nM; GI50 ([6]; BaF3 cells, EGFR DEL19 - C797S, read-out: GI50 DEL19 - C797S/BaF3): 2 nM; GI50 ([6]; BaF3 cells, EGFR DEL19 - T790-C797S, read-out: GI50 DEL19 - T790-C797S/BaF3): 2 nM; GI50 ([6]; BaF3 cells, EGFR L858R - C797S, read-out: GI50 L858R - C797S/BaF3): 6 nM; GI50 ([6]; BaF3 cells, EGFR L858R - T790-C797S, read-out: GI50 L858R - T790-C797S/BaF3): 2 nM; GI50 ([6]; BaF3 cells, EGFR L858R - T790M, read-out: GI50 L858R - T790M/BaF3): 2 nM; GI50 ([6]; BaF3 cells, EGFR L858R, read-out: GI50 L858R/BaF3): 13 nM; GI50 ([6]; EGFR DEL19 - T790M, read-out: GI50 DEL19 - T790M): 2 nM; IC50 ([7]; EGFR L858R/T790M, 1 h at room temperature, read-out: IC50 @L858R-T790M): 6.7 nM; IC50 ([8]; EGFR Exon19Del/T790M, 1 h at room temperature, read-out: IC50 @Del19-T790M): 6.9 nM; GI50 [9]: 12 nM; IC50 ([10]; EGFR[T790M/C797S/L858R], 1 h at room temperature, read-out: IC50 @T790M- C797S - L858R): 3 nM; GI50 ([11]; A-431 cells): 1370 nM; IC50 ([12]; EGFR[T790M/C797S/d746-750], 1 mM ATP, 1 h at room temperature, read-out: IC50 @T790M - C797S - Del19): 3.4 nM | Cc1cc2cc(n1)-c1cnn(C)c1OCCN1CC3CCC(C3)(C1)n1c(nc3ccc(N4CC(N5CCOCC5)C4)cc31)NC2=O (single isomer, unassigned) [Example B48B]
954 | 7 | 3.1 | 24 | 36 | 7.5 | 1.7 | 58 | 5.2 | 41 | 2.5 | 7.2 | 4.3 | 52 | 11 | 2020 | 7.3 | GI50 ([6]; Mus musculus, BaF3, 72 h, BaF3 cells, EGFR L858R - T790M, read-out: GI50 L858R - T790M/BaF3): 11 nM | Cc1cc2cc(n1)-c1cnn(C)c1OCCN1CC3CCC(CC3)(C1)n1c(nc3ccc(N4CCN(C)CC4)cc31)NC2=O [Example B3, 15,21-dimethyl-5-(4-methylpiperazin-1-yl)-23-oxa-2,9,11,16,20,21,26-heptaazaheptacyclo[26.2.2.1^{1,26}.1^{13,17}.0^{2,10}.0^{3,8}.0^{18,22}]tetratriaconta-3,5,7,9,13,15,17(34),18(22),19-nonaen-12-one]
